# Reference: patent US7795261B2, “Substituted 1-piperidin-4-yl-4-pyrrolidin-3-yl-piperazine derivatives and their use as neurokinin antagonists” (Janssen Pharmaceutica NV, priority 2002, dated 2010)
# Columns and labels:
# [1] = biological target: T1, NK3 (Homo sapiens, UniProt P29371); assay: Signal transduction (ST), intracellular Ca++ (FLIPR), NK3; format: cell-based; details: read-out: pIC50 NK3 (converted)
# T1 sequence (P29371 1-465): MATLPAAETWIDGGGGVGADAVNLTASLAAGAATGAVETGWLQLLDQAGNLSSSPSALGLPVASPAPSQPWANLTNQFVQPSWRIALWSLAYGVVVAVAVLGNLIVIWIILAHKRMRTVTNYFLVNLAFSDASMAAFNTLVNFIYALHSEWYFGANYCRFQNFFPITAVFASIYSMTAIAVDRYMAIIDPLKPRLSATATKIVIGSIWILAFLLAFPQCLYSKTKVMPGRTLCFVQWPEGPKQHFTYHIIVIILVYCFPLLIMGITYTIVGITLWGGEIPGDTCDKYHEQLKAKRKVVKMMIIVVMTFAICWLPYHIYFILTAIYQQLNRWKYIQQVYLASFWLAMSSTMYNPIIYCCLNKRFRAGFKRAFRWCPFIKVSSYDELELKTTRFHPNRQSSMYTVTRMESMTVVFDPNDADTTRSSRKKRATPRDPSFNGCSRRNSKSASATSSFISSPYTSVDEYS
# Description: [The procedure below names another target; the source lists this target under the same test.] (§1) This test evaluates in vitro functional NK1 antagonistic activity. For the measurements of intracellular Ca^++ concentrations the cells were grown on 96-well (black wall/transparent bottom) plates from Costar for 2 days until they reached confluence. The cells were loaded with 2 μM Fluo3 in DMEM containing 0.1% BSA and 2.5 mM probenecid for 1 h at 37° C. They were washed 3× with a Krebs buffer (140 mM NaCl, 1 mM MgCl2×6H2O, 5 mM KCl, 10 mM glucose, 5 mM HEPES; 1.25 mM CaCl2; pH 7.4) containing 2.5 mM probenecid and 0.1% BSA (Ca^++-buffer). The cells were preincubated with a concentration range of antagonists for 20 min at RT and Ca^++-signals after addition of the agonists were measured in a Fluorescence Image Plate Reader (FLIPR from Molecular Devices, Crawley, England). The peak of the Ca^++-transient was considered as the relevant signal and the mean values of corresponding wells were analysed as described below.
# The sigmoidal dose response curves were analysed by computerised curve-fitting, using the GraphPad Program. […] For antagonist responses the IC50-value was calculated using non-linear regression.
# The last columns indicates—without being limited therefore—for which the compounds might be most suitable. Of course, since for some neurokinin receptors no data was determined, it is obvious that these compounds might be attributed to another suitable use.
# [2] = biological target: NK1 (Homo sapiens, UniProt P25103); assay: Signal transduction (ST), intracellular Ca++ (FLIPR), NK1 antagonistic activity; format: cell-based; details: read-out: pIC50 NK1 (converted)
# Chain of NK1 (P25103 whole entry): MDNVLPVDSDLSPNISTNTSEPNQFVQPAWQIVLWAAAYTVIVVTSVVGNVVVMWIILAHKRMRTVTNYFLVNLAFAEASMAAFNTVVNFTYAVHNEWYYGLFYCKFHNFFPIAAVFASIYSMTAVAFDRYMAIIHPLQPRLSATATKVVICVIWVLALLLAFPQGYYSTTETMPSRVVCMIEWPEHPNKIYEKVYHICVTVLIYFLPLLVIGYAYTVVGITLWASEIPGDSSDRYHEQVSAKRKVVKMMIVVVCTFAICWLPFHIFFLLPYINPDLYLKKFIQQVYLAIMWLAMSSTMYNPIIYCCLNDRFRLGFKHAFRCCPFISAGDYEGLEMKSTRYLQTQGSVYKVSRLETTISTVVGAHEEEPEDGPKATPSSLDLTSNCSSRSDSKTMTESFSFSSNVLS
# Description: as §1
# The sigmoidal dose response curves were analysed by computerised curve-fitting, using the GraphPad Program. […] For antagonist responses the IC50-value was calculated using non-linear regression. […]
IC50 [1] [nM],IC50 [2] [nM],Structure (SMILES)
6310,126,"O=C(c1ccoc1)N1CCC(N2CCN(C3CCN(C(=O)c4cc(C(F)(F)F)cc(C(F)(F)F)c4)C(Cc4ccccc4)C3)CC2)C1 (single isomer, unassigned) [Compound 138]"
6310,158,"O=C(C1CCOC1)N1CCC(N2CCN(C3CCN(C(=O)c4cc(C(F)(F)F)cc(C(F)(F)F)c4)C(Cc4ccccc4)C3)CC2)C1 (single isomer, unassigned) [Compound 139]"
398,10,"O=C(c1ccccc1Cl)N1CCC(N2CCN(C3CCN(C(=O)c4cc(C(F)(F)F)cc(C(F)(F)F)c4)C(Cc4ccccc4)C3)CC2)C1 (single isomer, unassigned) [Compound 160]"
794,50.1,"CC(C)(C)OC(=O)N1CCC(N2CCN(C3CCN(C(=O)c4cc(C(F)(F)F)cc(C(F)(F)F)c4)C(Cc4ccc(Cl)c(Cl)c4)C3)CC2)C1 (single isomer, unassigned) [Compound 165]"
2510,15.8,"O=C(C(=O)N1CCC(N2CCN(C3CCN(C(=O)c4cc(C(F)(F)F)cc(C(F)(F)F)c4)C(Cc4ccccc4)C3)CC2)C1)c1ccco1 (single isomer, unassigned) [Compound 191]"
631,10,"N#Cc1cccc(C(=O)N2CCC(N3CCN(C4CCN(C(=O)c5cc(C(F)(F)F)cc(C(F)(F)F)c5)C(Cc5ccccc5)C4)CC3)C2)c1 (single isomer, unassigned) [Compound 192]"
501,7.94,"N#Cc1cccc(C(=O)N2CCC(N3CCN(C4CCN(C(=O)c5cc(C(F)(F)F)cc(C(F)(F)F)c5)C(Cc5ccccc5)C4)CC3)C2)c1 (single isomer, unassigned) [Compound 193]"
6310,50.1,"O=C(c1cc(C(F)(F)F)cc(C(F)(F)F)c1)N1CCC(N2CCN(C3CCN(Cc4ccccc4)C3)CC2)CC1Cc1ccc(F)c(F)c1 (single isomer, unassigned) [Compound 222]"
1580,158,"O=C(c1cc(C(F)(F)F)cc(C(F)(F)F)c1)N1CCC(N2CCN(C3CCN(Cc4ccccc4)C3)CC2)CC1Cc1ccc(F)c(F)c1 (single isomer, unassigned) [Compound 223]"
1580,3.16,"O=C(C1CCOC1)N1CCC(N2CCN(C3CCN(C(=O)c4cc(C(F)(F)F)cc(C(F)(F)F)c4)C(Cc4ccc(F)c(F)c4)C3)CC2)C1 (single isomer, unassigned) [Compound 227]"
3160,6.31,"O=C(C1CC1)N1CCC(N2CCN(C3CCN(C(=O)c4cc(C(F)(F)F)cc(C(F)(F)F)c4)C(Cc4ccc(F)c(F)c4)C3)CC2)C1 (single isomer, unassigned) [Compound 231]"
794,25.1,"CC(C(=O)N1CCC(N2CCN([C@H]3CCN(C(=O)c4cc(C(F)(F)F)cc(C(F)(F)F)c4)[C@H](Cc4ccc(F)c(F)c4)C3)CC2)C1)c1ccccc1 (single isomer, unassigned) [Compound 233]"
3160,10,"O=C(c1cc(C(F)(F)F)cc(C(F)(F)F)c1)N1CCC(N2CCN(C3CCN(S(=O)(=O)c4cccs4)C3)CC2)CC1Cc1ccc(F)c(F)c1 (single isomer, unassigned) [Compound 234]"
5010,3.98,"Cc1nnsc1C(=O)N1CCC(N2CCN(C3CCN(C(=O)c4cc(C(F)(F)F)cc(C(F)(F)F)c4)C(Cc4ccc(F)c(F)c4)C3)CC2)C1 (single isomer, unassigned) [Compound 236]"
3980,10,"O=C(c1cnccn1)N1CCC(N2CCN(C3CCN(C(=O)c4cc(C(F)(F)F)cc(C(F)(F)F)c4)C(Cc4ccc(F)c(F)c4)C3)CC2)C1 (single isomer, unassigned) [Compound 237]"
2510,10,"O=C(C1CCOC1)N1CCC(N2CCN(C3CCN(C(=O)c4cc(C(F)(F)F)cc(C(F)(F)F)c4)C(Cc4ccc(F)c(F)c4)C3)CC2)C1 (single isomer, unassigned) [Compound 242]"
2510,5.01,"Cc1nnsc1C(=O)N1CCC(N2CCN(C3CCN(C(=O)c4cc(C(F)(F)F)cc(C(F)(F)F)c4)C(Cc4ccccc4)C3)CC2)C1 (single isomer, unassigned) [Compound 381]"
501,15.8,"O=C(C1CCCCC1)N1CCC(N2CCN(C3CCN(C(=O)c4cc(C(F)(F)F)cc(C(F)(F)F)c4)C(Cc4ccccc4)C3)CC2)C1 (single isomer, unassigned) [Compound 402]"

IC50 [1] [nM],IC50 [2] [nM],Structure (SMILES)
1580,126,O=C(c1ccccc1)N1CCC(N2CCN(C3CCN(C(=O)c4cc(C(F)(F)F)cc(C(F)(F)F)c4)C(Cc4ccccc4)C3)CC2)C1 (stereo not drawn) [Compound 3]
316,200,O=C(c1cc(C(F)(F)F)cc(C(F)(F)F)c1)N1CC[C@H](N2CCN(C3CCN(c4nc5ccccc5s4)C3)CC2)C[C@H]1Cc1ccccc1 (stereo partly drawn) [Compound 7]
3980,100,Cn1c(N2CCC(N3CCN([C@H]4CCN(C(=O)c5cc(C(F)(F)F)cc(C(F)(F)F)c5)[C@H](Cc5ccccc5)C4)CC3)C2)nc2ccccc21 (stereo partly drawn) [Compound 8]
1260,39.8,Cc1ccccc1-n1cncc1CN1CCC(N2CCN([C@H]3CCN(C(=O)c4cc(C(F)(F)F)cc(C(F)(F)F)c4)[C@H](Cc4ccccc4)C3)CC2)C1 (stereo partly drawn) [Compound 9]
6310,100,O=C(c1cc(C(F)(F)F)cc(C(F)(F)F)c1)N1CC[C@H](N2CCN(C3CCN(Cc4nc5ccccc5[nH]4)C3)CC2)C[C@H]1Cc1ccccc1 (stereo partly drawn) [Compound 10]
3160,126,CCOCCn1c(CN2CCC(N3CCN([C@H]4CCN(C(=O)c5cc(C(F)(F)F)cc(C(F)(F)F)c5)[C@H](Cc5ccccc5)C4)CC3)C2)nc2ccccc21 (stereo partly drawn) [Compound 11]
126,79.4,N#Cc1cccc(C(=O)N2CCC(N3CCN([C@H]4CCN(C(=O)c5cc(C(F)(F)F)cc(C(F)(F)F)c5)[C@H](Cc5ccccc5)C4)CC3)C2)c1 (stereo partly drawn) [Compound 12]
2000,31.6,CC(C)Oc1cccc(C(=O)N2CCC(N3CCN([C@H]4CCN(C(=O)c5cc(C(F)(F)F)cc(C(F)(F)F)c5)[C@H](Cc5ccccc5)C4)CC3)C2)c1 (stereo partly drawn) [Compound 15]
2510,25.1,COc1cccc(OC)c1C(=O)N1CCC(N2CCN([C@H]3CCN(C(=O)c4cc(C(F)(F)F)cc(C(F)(F)F)c4)[C@H](Cc4ccccc4)C3)CC2)C1 (stereo partly drawn) [Compound 18]
5010,126,O=C(c1ccc(F)c(F)c1)N1CCC(N2CCN([C@H]3CCN(C(=O)c4cc(C(F)(F)F)cc(C(F)(F)F)c4)[C@H](Cc4ccccc4)C3)CC2)C1 (stereo partly drawn) [Compound 20]
2510,50.1,O=C(c1ccc(Cl)cc1Cl)N1CCC(N2CCN([C@H]3CCN(C(=O)c4cc(C(F)(F)F)cc(C(F)(F)F)c4)[C@H](Cc4ccccc4)C3)CC2)C1 (stereo partly drawn) [Compound 22]
200,25.1,Cc1occc1C(=O)N1CCC(N2CCN([C@H]3CCN(C(=O)c4cc(C(F)(F)F)cc(C(F)(F)F)c4)[C@H](Cc4ccccc4)C3)CC2)C1 (stereo partly drawn) [Compound 36]
2000,39.8,Cc1cc(C(=O)N2CCC(N3CCN([C@H]4CCN(C(=O)c5cc(C(F)(F)F)cc(C(F)(F)F)c5)[C@H](Cc5ccccc5)C4)CC3)C2)c(C)o1 (stereo partly drawn) [Compound 37]
7940,200,Cc1oc(-c2ccccc2)cc1C(=O)N1CCC(N2CCN([C@H]3CCN(C(=O)c4cc(C(F)(F)F)cc(C(F)(F)F)c4)[C@H](Cc4ccccc4)C3)CC2)C1 (stereo partly drawn) [Compound 38]
251,25.1,O=C(c1cccs1)N1CCC(N2CCN([C@H]3CCN(C(=O)c4cc(C(F)(F)F)cc(C(F)(F)F)c4)[C@H](Cc4ccccc4)C3)CC2)C1 (stereo partly drawn) [Compound 42]
3980,39.8,Cc1cc(C(=O)N2CCC(N3CCN([C@H]4CCN(C(=O)c5cc(C(F)(F)F)cc(C(F)(F)F)c5)[C@H](Cc5ccccc5)C4)CC3)C2)no1 (stereo partly drawn) [Compound 47]
2510,15.8,Cc1noc(C)c1C(=O)N1CCC(N2CCN([C@H]3CCN(C(=O)c4cc(C(F)(F)F)cc(C(F)(F)F)c4)[C@H](Cc4ccccc4)C3)CC2)C1 (stereo partly drawn) [Compound 48]
3160,6.31,Cc1nc(C)c(C(=O)N2CCC(N3CCN([C@H]4CCN(C(=O)c5cc(C(F)(F)F)cc(C(F)(F)F)c5)[C@H](Cc5ccccc5)C4)CC3)C2)s1 (stereo partly drawn) [Compound 50]
